The record followed here is article PMC5312290, “Momordin Ic, a new natural SENP1 inhibitor, inhibits prostate cancer cell proliferation” (Oncotarget, 2016).

Structures are written as SMILES.

In the experiment the target is SUMO-specific protease 1 (SENP1) (Homo sapiens, UniProt Q9P0U3).
Chain of SUMO-specific protease 1 (SENP1) (Q9P0U3 419-644 limits assumed): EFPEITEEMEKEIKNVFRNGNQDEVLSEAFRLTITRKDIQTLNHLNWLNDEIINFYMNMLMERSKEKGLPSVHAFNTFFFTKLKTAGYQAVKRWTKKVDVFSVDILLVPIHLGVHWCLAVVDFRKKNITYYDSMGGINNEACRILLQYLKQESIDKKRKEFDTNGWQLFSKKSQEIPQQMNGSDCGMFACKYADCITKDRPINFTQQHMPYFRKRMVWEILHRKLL

For orientation: IC50 means the concentration at which inhibition is half-maximal. As for `CC1(C)CC[C@]2(C(=O)O)CC[C@]3(C)C(=CC[C@@H]4[C@@]5(C)CC[C@H](O[C@@H]6O[C@H](C(=O)O)[C@@H](O)[C@H](O[C@@H]7OC[C@@H](O)[C@H](O)[C@H]7O)[C@H]6O)C(C)(C)[C@@H]5CC[C@]43C)[C@@H]2C1` [Mc, Momordin Ιc], the IC50 came out at 15.4 µM.
